The results in this text go back to patent US20230242513A1, “NOVEL HETEROARYL-SUBSTITUTED PYRAZINE DERIVATIVES AS PESTICIDES” (Bayer Animal Health GmbH, priority 2020, published 2023).

Type in all cases: in vivo
The subject of test [1] is Nezara viridula (southern green stink bug larvae). Nature of the test: Nezara viridula spray test. As to conditions: 96 h, application rate 500 g/ha, barley plants, after 4 days. How it is done:
Nezara viridula—Spray Test
(§1) Solvent: 78.0 parts by weight of acetone • • 1.5 parts by weight of dimethylformamide
(§2) Emulsifier: alkylarylpolyglycol ether
(§3) To produce a suitable preparation of active compound, 1 part by weight of active compound is mixed with the stated amount of solvent, and the concentrate is diluted with water, containing an emulsifier concentration of 1000 ppm, to the desired concentration. Further test concentrations are prepared by dilution with emulsifier containing water.
Barley plants (Hordeum vulgare) are sprayed with a test solution containing the desired concentration of the active ingredient and are infested with larvae of the southern green stink bug (Nezara viridula).
After 4 days mortality in % is determined. 100% means all the stink bugs have been killed; 0% means none of the stink bugs have been killed.

Test [2] deals with Rhipicephalus sanguineus (adult brown dog ticks). Nature of the test: Rhipicephalus sanguineus in-vitro contact test, adult brown dog ticks. As to conditions: application rate 5 μg/cm^2 (=500 g/ha); after 48 hours. How it is done:
Rhipicephalus sanguineus—In-Vitro Contact Tests with Adult Brown Dog Ticks
9 mg compound is solved in 1 mL acetone and diluted with acetone to the desired concentration. 250 μL of the test solution is filled in 25 mL glass test tubes and homogeneously distributed on the inner walls by rotation and tilting on a shaking device (2 h at 30 rpm). With a compound concentration of 900 ppm, an inner surface of 44.7 cm^2 and a homogeneous distribution, a dose of 5 μg/cm^2 is achieved.
After the solvent has evaporated, each test tube is filled with 5-10 adult brown dog ticks (Rhipicephalus sanguineus), closed with a perforated lid and incubated in a lying position at room temperature and relative humidity. After 48 hours efficacy is determined. The ticks are patted on the ground of the tubes and are incubated on a heating plate at 45-50° C. for at most 5 minutes. Immotile or uncoordinated moving ticks, which are not able to escape the heat by climbing upwards, are marked as dead or moribund.
An efficacy of 100% means all ticks are dead or moribund; 0% means no ticks are dead or moribund.

Test [3] relates to Diabrotica balteata (banded cucumber beetle larvae). Nature of the test: Diabrotica balteata spray test. As to conditions: 168 h, wheat seeds, after 7 days, read-out: efficacy (seedlings grown up like untreated, uninfected control). How it is done: Diabrotica balteata—Spray Test
as §1, §2, §3
Soaked wheat seeds (Triticum aestivum) are placed in a multiple well plate filled with agar and some water and are incubated for 1 day to germinate (5 seeds per well). The germinated wheat seeds are sprayed with a test solution containing the desired concentration of the active ingredient. Afterwards each unit is infected with 10-20 larvae of the banded cucumber beetle (Diabrotica balteata).
After 7 days efficacy in % is determined. 100% means all the seedlings have grown up like in the untreated, uninfected control; 0% means none of the seedlings have grown.

Test [4] concerns Rhipicephalus (Boophilus) microplus larvae (strain Parkhurst, resistant against synthetic pyrethroids). In words: Rhipicephalus (Boophilus) microplus in-vitro contact test, larval cattle tick. As to conditions: application rate 5 μg/cm^2 (=500 g/ha); after 48 hours. The method, then:
Rhipicephalus (Boophilus) microplus—In-Vitro Contact Tests Larval Cattle Tick (Strain Parkhurst, Resistant Against Synthetic Pyrethroids)
9 mg compound is solved in 1 mL acetone and diluted with acetone to the desired concentration. 250 μL of the test solution is filled in 25 mL glass test tubes and homogeneously distributed on the inner walls by rotation and tilting on a shaking device (2 h at 30 rpm). With a compound concentration of 900 ppm, an inner surface of 44.7 cm^2 and a homogeneous distribution, a dose of […] is achieved.
After the solvent has evaporated, each test tube is filled with 20-50 cattle tick larvae (Rhipicephalus microplus), closed with a perforated lid and incubated in a horizontal position at 85% relative humidity and 27° C. in an incubator. After 48 hours efficacy is determined. The larvae are patted on the ground of the tubes and negative geotactic behavior is recorded.
An efficacy of 100% means all larvae are dead or moribund; 0% means no larvae are dead or moribund.

Test [5] has as its system Myzus persicae (green peach aphid). Nature of the test: Myzus persicae oral test. Particulars: 120 h, application rate 20 ppm, after 5 days. How it is done:
Solvent: 100 parts by weight acetone
To produce a suitable preparation of active compound, 1 part by weight of active compound is mixed with the stated amount of solvent, and the concentrate is diluted with water to the desired concentration.
50 μL compound solution is filled in microtiter plates and 150 μL IPL41 insect medium (33%+15% sugar) is added to obtain a total volume of 200 μL per well. Afterwards the plates are sealed with parafilm through which a mixed population of the green peach aphid (Myzus persicae) can suck on the compound preparation.
After 5 days mortality in % is determined. 100% means all aphids have been killed and 0% means none of the aphids have been killed.

Broadly, the mortality is the share of the test organisms that died. The molecule `CC(NC(=O)c1cc(Cl)cc(S(C)(=O)=O)c1)c1nccnc1-n1nccn1` (racemic) [Example I-1, (rac)-3-Chloro-5-(methylsulfonyl)-N-{1-[3-(2H-1,2,3-triazol-2-yl)pyrazin-2-yl]ethyl}benzamide] yielded a mortality at 500 g/ha in test [1] of 100%. For the same molecule, the “efficacy (ticks dead or moribund)” value in test [2] is on record as 100%. Besides, the pest or weed control at 32 µg/disc, 100 g/ha in test [3] (application rate 100 g/ha (=32 μg/well)) was 100%. Moreover, in test [3] (application rate 500 g/ha (=160 μg/well)), the pest or weed control at 160 µg/disc, 500 g/ha was determined as 100%. Further, the “efficacy (larvae dead or moribund)” value in test [4] was determined as 90%. Moreover, in test [5], the mortality at 20 ppm stood at 100%.
